Results: patent US12338199B2, “Bis-octahydrophenanthrene carboxamides and protein conjugates thereof” (REGENERON PHARMACEUTICALS, INC., priority 2017, dated 2025)
“And” between values parts separate entries of the source, which are not always exact repeats. Identical values can stand only once. Like-named read-outs stand apart in the source and are kept apart here.

Key:
[1] = test system: THP1/LXR-Luc cells; assay: THP1/LXR-Luc luciferase reporter bioassay; type: cell-based; details: Homo sapiens, THP-1, 48 hours
Method in brief: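 THP1 cells stably carrying an LXR-response-element firefly luciferase reporter were seeded at 30,000/well in RPMI/10% FBS and given 3-fold dilutions (100 nM to 0.01 nM) for 48 or 72 h. Luminescence was read with One-Glo. EC50 came from a 4-parameter fit of a 10-point curve, and fold activation was taken relative to maximal free-payload activation.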

[2] = test system: ABCA1; assay: ABCA1 mRNA induction in differentiated THP-1 macrophages (TaqMan); type: cell-based, human; details: THP1 macrophages, 24-hour treatment; magnitude in words
Experimental: To determine the ability of LXR agonists to activate ABCA1 and ABCG1 genes, the mRNA levels of these two genes in differentiated macrophages was measured. […] Cells were differentiated into macrophages by treatment with 100 nM Phorbol-12 myristate 13-acetate (Sigma, # P8139), which was added to the media described above, for 72 hours. […] Chloroform was then used for phase separation. The aqueous phase, containing total RNA, was purified using MagMAX™-96 for Microarrays Total RNA Isolation Kit (Ambion, Cat # AM1830) and reverse-transcribed into cDNA using SuperScript® VILO™ Master Mix (Invitrogen, Cat #11755050) as per the manufacturer's instructions. TaqMan® was performed using Gene Expression Master Mix, the ABI 7900HT Sequence Detection System (Applied Biosystems) and the primers and probes indicated below in Table 9. The GAPDH gene was used as the internal control gene to normalize any cDNA input differences.

[3] = molecular target: T1, LXR beta (Homo sapiens, UniProt P55055); assay: LanthaScreen TR-FRET LXR beta Coactivator Assay (cell-free binding); details: TR-FRET, 12-point curve; read-out: Cell free binding LXRβ IC50
T1 construct: LXR alpha or beta LBD-GST; purchased ThermoFisher PV4658
T1 sequence (P55055 222-460 limits assumed): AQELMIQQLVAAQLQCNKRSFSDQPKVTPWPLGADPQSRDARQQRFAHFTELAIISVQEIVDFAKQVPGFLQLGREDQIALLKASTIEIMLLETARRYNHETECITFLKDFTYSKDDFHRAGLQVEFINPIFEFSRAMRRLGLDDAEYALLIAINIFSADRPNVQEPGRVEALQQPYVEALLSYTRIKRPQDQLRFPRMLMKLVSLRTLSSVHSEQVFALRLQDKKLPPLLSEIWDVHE

[4] = test system: THP1/LXR-Luc/Her2 cells; assay: THP1/LXR-Luc/Her2 luciferase reporter bioassay; type: cell-based; details: Homo sapiens
From the text: A bioassay was developed to assess the activity of LXR agonists after internalization of an agonist or of a ncADC into cells and binding to LXR, a nuclear receptor, using a commercially available LXR reporter (referred to as LXR-Luc) that contains the firefly luciferase gene under control by minimal CMV promoter and tandem repeats of the LXR transcriptional response element. For this assay, a THP1 cell line, which is a human monocytic leukaemia line, was engineered to express full length human Her2 (expressing amino acids M1 through V1255 of accession number NP_004439.2). The subsequent stable cell line was further transduced with a Cignal LXR Luc Reporter (Qiagen, Cat # CLS-7041L). The resulting stable cell line is referred to herein as THP1/Her2/LXR-Luc. The Her2 cell surface expression on THP1/Her2/LXR-Luc cell line was confirmed by FACS (data not shown).
This example assessed the ability of the LXR agonists provided herein, reference compounds, and anti-Her2 antibody-LXR ncADC to activate LXR. The samples were tested in the THP1/LXR-Luc/Her2 bioassay. For the assay, either THP1/LXR-Luc cells or THP1/LXR-Luc/Her2 cells were seeded onto white 96 well plates at 30,000 cells/well in media containing RPMI supplemented with 10% FBS and pencillin/streptomycin (complete media). Subsequently 3-fold serial dilutions of antibody drug conjugates, unconjugated antibodies, or free payloads were added to the cells at final concentration ranging from 100 nM to 0.01 nM. After 48-hour or 72-hour incubation, luciferase activity was determined after the addition of One-Glo™ reagent (Promega, Cat # E6130) to each well of cells. Relative light units (RLUs) were measured on a Victor luminometer (PerkinElmer) and the EC5o values were determined using a four-parameter logistic equation over a 10-point dose response curve (GraphPad Prism) (FIG. 15). The fold activation is calculated based on the maximum activation of the free payload 9d.

[5] = test system: THP-1 cells; assay: BODIPY-cholesterol efflux in THP-1 macrophages; type: cell-based, human; details: for EC50: Homo sapiens, THP-1
Experimental: The ability of anti-MSR1 antibody-LXR conjugates to activate cholesterol efflux in a human macrophage cell line (THP-1; ATCC Catalog # TIB-202), was assessed using a fluorescent cholesterol analog.
Cells were differentiated into macrophages by addition of 100 nM Phorbol-12 myristate 13-acetate (Sigma, Catalog #P 8139) to the media and subjected to further incubation for 96 hours.
Percentage of BODIPY-cholesterol efflux was calculated using the following formula: [fluorescence in acceptor media/(fluorescence in acceptor media+fluorescence in cell lysate)]×100. Table 15 provides activated cholesterol efflux for the tested articles, and FIG. 15 illustrates the data in graph form.

C[C@]1(C(=O)NC(=O)[C@@]2(C)CCC[C@]3(C)c4cc(O)ccc4CC[C@@H]23)CCC[C@]2(C)c3cc(N)ccc3CC[C@@H]12 [Compound 9d, (1S,4aS,10aR)—N-[(1S,4aS,10aR)-6-Amino-1,4a-dimethyl-1,2,3,4,4a,9,10,10a-octahydrophenanthrene-1-carbonyl]-6-hydroxy-1,4a-dimethyl-1,2,3,4,4a,9,10,10a-octahydrophenanthrene-1-carboxamide]
EC50 ([1]; read-out: Activation of THP1/LXR-Luc cells: EC50): ≤ 1 nM | Emax ([1]; relative to maximum activation of free payload 9d, read-out: Activation of THP1/LXR-Luc cells: Fold of activation): > 75% | ABCA1 induction EC50 [2]: sub-picomolar | IC50 [3]: < 10 nM | EC50 ([4]; THP-1, 48 h, 48-hour time point): 1.6 nM | EC50 ([4]; THP-1, 48 h, 48 hours, unit inferred, values correspond to M): 1.6 nM | EC50 ([4]; THP-1, 72 h, 72-hour time point): 2.8 nM | EC50 ([4]; THP-1, 72 h, 72 hours): 2.8 nM | Maximum efflux (%) ([5]; 24-hour treatment, BODIPY-cholesterol efflux): 36.6% and 36.7% | EC50 ([5]; 24-hour treatment, read-out: Cholesterol Efflux activation EC50): 0.15 nM | EC50 ([5]; after 24 hours, read-out: Cholesterol efflux EC50): 0.15 nM
